Consider two compounds from patent EP0719267B1, “SECOND MESSENGER CELL SIGNALING INHIBITORS” (CELL THERAPEUTICS, INC., priority 1993, dated 1994).

Structures are written as SMILES.

Data set [1] has as its system murine thymocyte proliferation. Nature of the data set: Thymocyte proliferation stimulated by Con A and IL-1α. In kind it is cell-based. Particulars: Mus musculus, 2 h, added two hours prior to Con A and IL-1α. Here is the method:
In a first part of this example, compounds nos. 30, 33, 28 and 27 (see above for chemical names and structures) show effective inhibition of murine thymocyte proliferation stimulated by Con A and interleukin 1 alpha (IL-1α). Compounds nos. 30, 33, 28 and 27 were added to cell cultures two hours prior to activation with Con A and IL-1α in a thymocyte co-stimulation procedure akin to that discussed in example 21. […] IC50 values determined for each inventive compound tested are as follow: compound no. […] Background counts in the assay were less than 200 cpm.

For a further data set, the system named is mast cell degranulation. Nature of the data set: Serotonin release assay for inhibition of mast cell degranulation. It is filed as cell-based. The conditions noted are these: Concentration 50 µM. The source says: This assay provides an in vitro model for an allergy and asthma therapeutic product. […]
Data set [2] relates to transformed cells (Ras 3T3) and normal 3T3 cells. Kind of data set: Cytotoxicity for transformed versus non-transformed cells. It is filed as cell-based. Particulars: 1, 10 and 100 µM. Here is the method:
This example compares cytotoxicity results for inventive compound no. 27 for transformed cells and non-transformed cells. In transformed cells (Ras 3T3) and in normal 3T3 cells, cytotoxicity of compound no. 27 at concentrations of 1, 10 and 100 µM was determined. Figure 18 reports results obtained in this assay. At each of the above concentrations, compound no.

In data set [3] the test system is murine lymph node cell proliferation. Kind of data set: Lymph node cell proliferation stimulated by antigen. In kind it is cell-based. The conditions noted are these: Mus musculus. The source says:
This example illustrates activity of representative inventive compounds nos. 27, 49, 50, 45, 43 or 41 (above) in assays detecting activity in response to cell stimulus. One assay, murine lymph node cell proliferation (stimulated by anitgen) was used to determine inhibitive activity of compound no. 27 on proliferation of the lymph node cells. This in vitro assay is an immune suppressive/autoimmune treatment predictive assay emphasizing cellular or T cell immune response. The assay used murine T cells that proliferate in vitro in response to a soluble protein antigen, used to prime the T cells in vivo. Compound was added to the cells at doses indicated in figures 7 and 8 (showing assay results) two hours prior to activation with […]. Compound no. 27 inhibited T cell proliferation in a dose-response manner. IC50 values for compound no.

Data set [4] concerns murine splenocyte proliferation. Kind of data set: Splenocyte (B cell) proliferation stimulated by anti-mu/anti-IgM and IL-4. It is filed as cell-based. The conditions noted are these: Mus musculus, anti-mu and IL-4 12.5 ng/ml. Here is the method:
This example illustrates inhibitive effects of compounds nos. 27 and 28 on murine splenocyte proliferation stimulated by anti-mu ([…]) and interleukin-4 (IL-4, 12.5 ng/ml). This in vitro assay, described above, is indicative of immune-suppressive/autoimmune treatment assay emphasizing humoral or B cell immune response. The inventive compound was added to the cells at the doses indicated two hours prior to activation with anti-mu and IL-4. Both compounds nos. 27 and 28 inhibited splenocyte proliferation in a dose-response manner. IC50 values for compounds nos. Background counts were less than 200 cpm.
In figure 57, results shown illustrate that inventive compound no. 45 inhibits B cell proliferation. Murine splenocytes were stimulated with anti-IgM antibodies (10 µg/ml) and murine IL-4 (12.5 ng/ml). Cells were pulsed with ^3HTdR at 44 hours, harvested 4 hours later, and the incorporation of ^3H-TdR was determined by liquid scintillation.

Data set [5] concerns proliferative PMBC response to allogeneic stimulation. Kind of data set: Two-way mixed lymphocyte reaction. It is filed as cell-based. An excerpt:
This example illustrates therapeutic potential for various autoimmune and inflammatory diseases of the inventive compounds by comparing potency (inhibitive activity) with cytotoxicity data obtained using the following indicative assay procedures. In a mixed lymphocyte reaction assay of compounds nos. […] Compounds nos. […] 2A and 2B. Both compounds nos. […] 2C.
Compound no. […] Compound no.

Data set [6] concerns murine thymocyte proliferation. Kind of data set: Thymocyte proliferation co-stimulated by ConA and IL-2 (tritiated thymidine). It is filed as cell-based, Balb/C mice. Particulars: ConA and IL-2 co-stimulation. Here is the method:
ConA, used to activate CD3, induces T-cell proliferation and differentiation. Thymuses, obtained from normal, female Balb/C mice, were dissociated and plated into 96-well plates at a density of 2 x 10^5 cells/well. ConA (0.25 mg/ml) and IL-2 (15 U/ml) were added to the wells. The cells were incubated for 4 days at 37°C. On day 4, the cells were pulsed with tritiated thymidine and incubated for an additional 4 hours. The amount of tritiated thymidine dye incorporated by the harvested cells was determined in a liquid scintillation counter. Drug doses (shown in figs. 1A and 1B) were added two hours prior to ConA and IL-2 activation.
Thymuses, obtained from normal, female Balb/C mice, were dissociated and plated into 96-well plates at a density of 2 x 10^5 cells/well. ConA (0.25 mg/ml) and IL-2 (15 U/ml) were added to the wells. The cells were incubated for 4 days at 37 °C. On day 4, the cells were pulsed with tritiated thymidine and incubated for an additional 4 hours. The amount of tritiated thymidine dye incorporated by the harvested cells was determined in a liquid scintillation counter. Doses (shown in figs. 26A, 26B and 26C) were added two hours prior to ConA and IL-2 activation.
In another in vitro protocol, thymocyte proliferation was induced by sub-mitogenic doses of Con A (0.25 µg/ml) and IL-2 (20 ng/ml). Cells were stimulated for 96 hours, prior to addition of ^3H-TdR for 4 hours. The cells were harvested and incorporation of ^3H-TdR was determined.
45 on co-stimulated thymocyte proliferation. In an assay procedure, murine thymocytes were stimulated with ConA and IL-2 with 1 µM compound no. 45 added either 1 hour prior to IL-2 (-1), simultaneous with IL-2 (0) or at various times following IL-2 addition (1-92 hour). At 92 hours the thymocytes were pulsed with ^3H-TdR, harvested and counted by scintillation 4 hours later.

For data set [7], the system named is mixed lymphocyte reaction assay culture. Kind of data set: Cell percent viability in mixed lymphocyte reaction culture. In kind it is cell-based. Particulars: 100 µM, six days of cell culture. Here is the method: Cell percent viability in mixed lymphocyte reaction assay culture was determined after six days of cell culture. […] Control cells unexposed to drugs are generally 78 to 85% viable under these culture conditions. In this assay, all inventive compounds were present at 100 µM concentrations, generally well above corresponding IC50 values in this assay (see fig. 2D). […] Compounds nos.

For another data set, the system named is Human stromal cells. Nature of the data set: Stromal cell proliferation in response to PDGF-BB. The conditions noted are these: 50 ng/ml PDGF-BB. In kind it is cell-based. The protocol:
This assay is useful for predicting therapeutic activity for preventing or treating restenosis, atherosclerosis and coronary artery disease. Human stromal cells were starved in serum-free media for one day and then stimulated with 50 ng/ml PDGF-BB. Inventive compounds, at various concentrations, were added one hour prior to PDGF stimulation. PDGF and tritiated thymidine were added and the cells allowed to incubate for one day, following addition of the PDGF and thymidine. 24 Hours later, the cells were harvested and counted by liquid scintillation counting. Results for compounds nos. Background counts (i.e., starved cells) were approximately 1% of control levels. […] 30, 28, 29, 32 and 31, respectively.

Data set [8] in a line: Cytotoxicity to stromal cells in the stromal cell/PDGF stimulation assay. In kind it is cell-based. Particulars: human, read-out: concentrations with cytotoxic effects. The protocol: In conjunction with the human stromal cell/PDGF stimulation assay, cytotoxicity of the inventive compounds tested to stromal cells was also determined. […] Only compond no.
A further data set concerns Saccharomyces cervisiae. Kind of data set: Yeast growth assay (anti-yeast and anti-fungal activity). It is filed as cell-based. Particulars: 100 µM. The protocol: This example illustrates the effects of a reference compound "X", and inventive compounds nos. 29, 30, 31, 32 and 33 (see above for names and structures) on yeast growth (Saccharomyces cervisiae)--using 100 µM concentrations--as compared with yeast activity in the absence of any compound additive (control). This assay measured anti-yeast and anti-fungal activity of the inventive compounds tested.

Data set [9] concerns PDGF/IL-1 co-stimulation, proliferation. Nature of the data set: PDGF/IL-1 co-stimulation proliferation assay. It is filed as cell-based. Particulars: fig. 14. The source says:
The PDGF/IL-1 assay is useful in measuring in vitro activity, indicative of therapeutic potential for treating or preventing restenosis and reperfusion. Figure 14 reports IC50 bar graph results for a group of inventive compounds nos. 27, 28, 32, 30, 31, 32 and 34. In this predictive, in vitro model, compounds nos.

The next data set has as its system CMV promoter activity. Nature of the data set: microbe, parasite or virus in culture. It is filed as cell-based. An excerpt:
This example illustrates data of proliferative activity of various inventive compounds for inducing CMV promoter activity. The CMV promoter assay measures gene transcription and translation activity wherein any active compounds will have cytotoxic activity for inhibiting cellular protein synthesis in transformed (adenovirus) cells. Compound no. […]

Take `Cn1cnc2c1c(=O)n(CCCCCCCC(O)CNCc1ccccc1)c(=O)n2C` (stereo not shown) [compound no. 27, 1-(8-hydroxy-9-(N-benzyl)aminononyl)-3,7-dimethylxanthine]: the IC50 in data set [1] is below 12500 nM; in [3] (first experiment (fig. 7)) it was 23.1 µM; in [3] (second experiment (fig. 8)), 19 µM; in [4] it was 3.3 µM; in data set [5] (Lymphocyte, figs. 2A-2C), 40 µM. The inhibition at 50 µM with mast cell degranulation (Mast cell) was determined as 29%. Also, the differential cytotoxicity entry in data set [2] was “more cytotoxic for the cancer cells than normal cells”. Moreover, the immune suppression activity entry in data set [5] (fig. 2D) is given as “did not exhibit significant suppressive activity”. Also, the “inhibition of thymocyte proliferation” value in data set [6] is given as “the most potent immune-suppressive effects”. Moreover, in [7], the “cytotoxicity (percent viability)” value is “little or no cytotoxicity”.

Consider `CCCCCCCCCCCNCC(O)CCCCn1c(=O)c2c(ncn2C)n(C)c1=O` (stereo not shown) [compound no. 30, 1-(6-Undecylamino-5-hydroxyhexyl)-3,7-dimethylxanthine], for which the IC50 in data set [1] is 940 nM; in the data set with Human stromal cells, 900 nM; in the data set on CMV promoter activity (transformed (adenovirus) cells), 15 µM. In addition, the “% Inhibition” value with mast cell degranulation is recorded as “too toxic”. The MCC in [8] was above 900 nM. Moreover, in the data set with Saccharomyces cervisiae, the yeast-growth inhibitive activity result is on record as “showed yeast-growth inhibitive activity”. The “inhibition of thymocyte proliferation” value in data set [6] is recorded as “the most potent immune-suppressive effects”. In addition, the inhibitive activity entry in data set [9] is listed as “potent inhibitive activity”. For the same compound, the “cytotoxicity, ranking among compounds tested” value in the data set on CMV promoter activity is listed as “the most cytotoxic compound tested”.
